Like-named read-outs stand apart in the source and are kept apart here. Where only a bound is given, the exact number is not on record here.

The conditions of data set [1]: background statement; cited from earlier work.
The subject of the next data set is Banana fruit. The experiment in a line: Ethylene-induced ripening of green banana fruit (peel color, firmness). It counts as in vivo. As for the experimental part: (§1) Each kind of the model plants was exposed to different concentrations of CPAS in an aqueous solution for 6-18 h as a pre-treatment following exposure for 24 h to different concentration of ethylene. In the case of banana and avocado fruits, the peel was brushed with different concentrations of CPAS aqueous solution, in the presence of commercially available Tween 20 surfactant (0.025%) as pre-ethylene treatment, and the delay in days elapsed until color breakdown (from green to yellow in banana—Table 1, FIG. 4; and from green to black in avocado—Table 1, FIG. 6) over air control was recorded as a criterion of the efficiency of the ethylene antagonist. In the case of peach fruit, the surfactant BAS 70 (generously supplied by BASF, Germany) was used. The results were recorded after incubation of 2-4 days in controlled conditions (Table 1, FIG. 11). When using cut flower models (FIGS. 1-3) CPAS aqueous solutions±surfactants was applied by loading either the cut flower or the isolated petals for 18 h in CPAS aqueous solutions prior to ethylene treatment. The number of days of the delay of senescence of the tested plant materials over water control was recorded, by following the visual wilting of the flowers. Tomato seedlings were sprayed with CPAS aqueous solutions in the presence of commercial available ‘Kinetic’ organo-silicone surfactant blend, kept for calibration in a growth chamber for 8-10 hr before spraying with CPAS solution or before loading CPSA by excised seedlings via their lower stem cut surface (Table 1, FIG. 10) in order to antagonize ethylene-induced epinasty of leaf petioles (Table 1, FIGS. 8-9). In the case of citrus leaf explants, abscission was tested at the laminar abscission zone. CPAS in aqueous solution, was either pre-treated by direct loading of the treatment solutions into the proximal side of the explant for 17 h, or by dipping the whole explant in the tested solutions for 30 to 60 sec in the presence of commercially available Tween 20 TM surfactant (0.025%. In all cases, a significant delaying action of ethylene-induced responses, was recorded in all the plant systems examined (Table 1, FIG. 7). In further examples, the concentrations of the CPAS aqueous solutions were used in the range of the results obtained in the above experiment.
Banana fruits were treated by brushing with aqueous solution of water soluble CPAS (200 μg mL^−1). After 18 hr all treated and untreated fruits were exposed to ethylene (300 μL^−1) to hasten ripening. All fruits were ventilated and held in air at 22° C. and 92% RH for assessment of their ripening value. Photos were taken on day 12 (untreated—FIG. 4A, treated FIG. 4B).
Additionally, banana fruits were treated by brushing with aqueous solution of CPAS ([…], and commercially available surfactant Tween 20 [0.025%]) and after 18 hr were exposed to ethylene (300 μL/L^−1) for 24 hr to hasten ripening. Fruits were kept at 24° C. and 92% RH. The fruits kept in air and treated by CPAS only served as comparative ones. Results were collected on day 7 (FIG. 5A).

The subject of the next data set is Avocado fruit. The experiment in a line: Ethylene-induced ripening of 'Hass' avocado fruit (peel color, firmness, peduncle abscission). The format is in vivo. The protocol:
as §1
“Hass” avocado fruits with long peduncles were loaded with water soluble CPAS by dipping the peduncle cut surface for 30 hr in aqueous solution containing 100 μg/mL^−1 of CPAS. The untreated fruits with peduncles immersed in water. After the treatment with CPAS all fruits were exposed for 24 hr to the ethylene (250 μL L^−1). Afterwards the fruits were held at 24° C. and 92% RH for assessment their maturity parameters (peel color change and pulp firmness) and abscission of the peduncle. Photos were taken on day 5 after treatment (untreated—FIG. 6A, treated FIG. 6B).

Another data set deals with Peach fruit. The experiment in a line: Peach fruit firmness / shelf life after spraying. It counts as in vivo. The protocol:
as §1, with “When using cut flower models (FIGS. 1-3) CPAS aqueous solutions±surfactants was applied by loading either the cut flower or the isolated petals for 18 h in CPAS aqueous solutions prior to ethylene treatment.” left out, “Tomato seedlings were sprayed with CPAS aqueous solutions in the presence of commercial available ‘Kinetic’ organo-silicone surfactant blend, kept for calibration in a growth chamber for 8-10 hr before spraying with CPAS solution or before loading CPSA by excised seedlings via their lower stem cut surface (Table 1, FIG. 10) in order to antagonize ethylene-induced epinasty of leaf petioles (Table 1, FIGS. 8-9). In the case of citrus leaf explants, abscission was tested at the laminar abscission zone.” left out
Peach fruits were harvested and brought to the lab and immediately sprayed with different concentrations of CPAS solution (K-phosphate buffer, 20 mM, and 0.1% organo-silicone surfactant, namely BAS 90370S by BASF Germany), and kept at 22° C. and 90% humidity for up to 4 days. […] Firmness was recorded by a penetrometer (chatillon, using a disc of 8 mm diameter), after removing a 15 mm square peel strip in order to allow measuring the firmness directly on the flesh of the fruit.

The test system of a further data set is Carnation flower. The experiment in a line: Carnation cut flower vase life. The format is in vivo. The protocol:
as §1
Carnation cut flowers treated by dipping cut surface for 18 hr in aqueous solution containing 8 μg mL^−1 of CPAS. Untreated flowers were held in water. After treatment all flowers are kept in water at 22° C. and 80% RH under continuous fluorescent light for assessment of their vase life. Photo was taken on day 14.

The test system of another data set is Carnation flower petal. The experiment in a line: Ethylene-induced senescence of isolated carnation petals. The format is in vivo. As for the experimental part: as §1
The following test was designed to further establish the ability of water soluble CPAS in aqueous solution to delay the ethylene-induced senescence of isolated carnation petals. The experiment was carried out in a growth chamber to ensure optimal environmental conditions (light, temperature and relative humidity). Carnation petals were loaded with CPAS by dipping their cut surface for 18 hr in aqueous solution containing 81 μg mL^−1 of CPAS. Untreated petals that were held in water. […]

For a further data set, the system named is Petunia flower. The experiment in a line: Petunia cut flower vase life after ethylene. The format is in vivo. The protocol:
as §1, with “Tomato seedlings were sprayed with CPAS aqueous solutions in the presence of commercial available ‘Kinetic’ organo-silicone surfactant blend, kept for calibration in a growth chamber for 8-10 hr before spraying with CPAS solution or before loading CPSA by excised seedlings via their lower stem cut surface (Table 1, FIG. 10) in order to antagonize ethylene-induced epinasty of leaf petioles (Table 1, FIGS. 8-9). In the case of citrus leaf explants, abscission was tested at the laminar abscission zone.” left out, “experiment. […]” for “experiment.”

Another data set relates to Tomato leaf petiole. The experiment in a line: Ethylene-induced epinasty of tomato leaf petioles. Further details: key to Protection (effect grade): + = weak effect; ++ = medium effect; +++ = strong effect. The note with it: ethylene treatment +. It counts as in vivo. The protocol: as §1
For the spraying experiment (FIG. 8) tomato plants from green house (3 weeks old) were brought for calibration in a growth chamber (8-10 hr, at 22° C. and 80% RH, under continuous fluorescent light). […]
In a second experiment the changes of the degree of the petiole from the branch, that expresses the epinastic response, was calculated (FIG. 9). […]

The next data set deals with Citrus leaf explants. The experiment in a line: Abscission of citrus leaf explants. The note with it: for Minimum apparent concentration / Protection time (days over control): Citrus leaf abscission, ethylene treatment +. The format is in vivo. The protocol: as §1
The application of water soluble CPAS to citrus leaf explants was studied under air, antagonizing endogenous ethylene-induced abscission, comparing two methods of applications; either by dipping their petiole cut surfaces for 6 h in CPAS aqueous solution, or by dipping the whole explants for 30 sec. in the same treatment solution plus or minus a surfactant. In this experiment Tween-20 (0.025%) was chosen as surfactant, but any un-ionic surfactant may be chosen. The experiment indicates, as expected, that surfactants improve the penetration into plant tissues. However, if application is preferred via a cut surface like with cut flowers, there is no need to add a surfactant to the treatment solution (FIG. 7).
FIG. 7 represents a set of three figures, wherein explants are loaded with CPAS by dipping their petiole cut surfaces for 6 h in CPAS aqueous solution (A); dipped for 30 sec. in the same treatment solution (B); and treated as in B, but including Tween-20 [0.025%] (C).

Data set [2] in a line: Solubility and stability in water. The format is physicochemical.
[3] abbreviates: Banana fruit, peel color, brushing, ethylene treatment +.
Where [4] appears, read: Avocado fruit, peel color, loading, ethylene treatment +.
The mark [5] stands for this setting: avocado, 100 μg/mL loading via peduncle 30 hr, ethylene 250 μL L^−1 24 hr.
Setting [6] is: Peach fruit, firmness, spraying, ethylene treatment −.
Where [7] appears, read: Carnation flower, vase life, loading, ethylene treatment −.
The mark [8] stands for this setting: Carnation flower petal, senescence, loading, ethylene treatment +.
[9] abbreviates: Petunia flower, vase life, loading, ethylene treatment +.

For `CC1=CC1` [1-MCP, 1-methylcyclopropene], in [1], the Solubility in water result is listed as “insolubility in water”.
Regarding `O=C([O-])CCC1=CC1.[Na+]` [CPAS, cyclopropyl-1-enyl-propanoic acid sodium salt], the Minimum apparent concentration in the data set with Banana fruit (setting [3]) was determined as 200 µg/mL; in the data set with Avocado fruit (setting [4]) it was 100 µg/mL; with Peach fruit (setting [6]), 10 µg/mL; in the data set with Carnation flower (setting [7]), 0.8 µg/mL; in the data set on Carnation flower petal (setting [8]), 81 µg/mL; with Petunia flower (setting [9]) it was 98 µg/mL. The Minimum apparent concentration in the data set with Tomato leaf petiole (loading) came out at 9 µg/mL; with Tomato leaf petiole (spraying), 160 µg/mL; in the data set with Citrus leaf explants (dipping), 42 µg/mL; with Citrus leaf explants (loading) it was 32 µg/mL. Besides, the “Protection time (days over control)” value is 6 days in the data set with Banana fruit (setting [3]); 5 days in the data set with Avocado fruit (setting [4]); 4 days with Peach fruit (setting [6]); 10 days in the data set with Carnation flower (setting [7]); 11 days in the data set with Carnation flower petal (setting [8]); 17 days in the data set on Petunia flower (setting [9]). The “Protection time (days over control)” value with Citrus leaf explants (dipping) is 2 days; with Citrus leaf explants (loading) it was 7 days. In addition, the “Delaying the decrease in fruit firmness” value in the data set with Banana fruit (banana, 1000 μg mL^−1 brushing, ethylene 24 hr) is given as “ineffective”. In the data set on Banana fruit (banana, brushing, ethylene, effective at the higher concentrations), the “Delay of color break of the fruit” value is reported as “significantly delayed”. In addition, the “Delay of banana peel de-greening” value in the data set with Banana fruit (summary statement) is listed as at least 12 days. Besides, the Fruit softening result in the data set on Avocado fruit (setting [5]) is given as “a little delaying effect”. Also, in the data set on Avocado fruit (setting [5]), the Peduncle abscission entry was “significantly delayed”. For the same compound, the Skin color development result in the data set with Avocado fruit (setting [5]) is reported as “significantly delayed”. In addition, the “Delay of color change of 'Hass' avocado fruit” value in the data set on Avocado fruit (summary statement) is reported as at least 5 days. Also, in the data set with Peach fruit (spraying with surfactant, 22° C., up to 4 days), the “Shelf life of climacteric fruit (peach)” value is reported as “expand the shelf life”. Besides, in the data set on Carnation flower (8 μg mL^−1 dipping cut surface 18 hr, day 14, vs untreated), the “Longevity of carnation cut flowers during vase life” value was “longevity increase”. Further, the “Prolonging the vase-life of carnation cut flowers” value in the data set with Carnation flower (summary statement) is on record as at least 14 days. The “Ethylene antagonistic effect on petal senescence” value in the data set with Carnation flower petal (81 μg mL^−1 loading 18 hr, ethylene 5 μl L^−1 24 hr, measured after 6 days) is recorded as “highly significant”. Also, the Toxic symptoms result with Carnation flower petal (carnation petals, 81 μg mL^−1 loading 18 hr) was “No toxic symptoms were observed”. Besides, in the data set on Petunia flower (summary statement), the “Prolonging the vase-life of petunia cut flowers” value is on record as at least 14 days. In addition, the “Protection (effect grade)” value in the data set with Tomato leaf petiole (loading) and in the data set on Tomato leaf petiole (spraying) was “*+++” throughout. In addition, in the data set with Citrus leaf explants (summary statement), the “Delay of abscission of citrus leaf explants” value is listed as at least 7 days. In addition, in data set [2], the Solubility in water entry was “soluble”. Moreover, the Stability in water result in [2] is on record as “stable in water”.

The record behind these values is patent publication US9023761B2, “Compositions and methods for blocking ethylene response in plants using 3-cyclopropyl-1-enyl-propanoic acid salt” (Yissum Research Development Company of the Hebrew …, priority 2007, dated 2015).
